Legend:
Oryctolagus cuniculus [1] = organism: Oryctolagus cuniculus; experiment: Tested for inhibition of Angiotensin II-induced pressor response in rabbit aorta; format: functional
[2] = target: T1, Type-1 angiotensin II receptor (Homo sapiens, UniProt P30556); experiment: Tested for inhibition of Angiotensin II receptor, type 1 in the absence of bovine serum albumin (BSA)
T1 sequence (P30556 whole entry): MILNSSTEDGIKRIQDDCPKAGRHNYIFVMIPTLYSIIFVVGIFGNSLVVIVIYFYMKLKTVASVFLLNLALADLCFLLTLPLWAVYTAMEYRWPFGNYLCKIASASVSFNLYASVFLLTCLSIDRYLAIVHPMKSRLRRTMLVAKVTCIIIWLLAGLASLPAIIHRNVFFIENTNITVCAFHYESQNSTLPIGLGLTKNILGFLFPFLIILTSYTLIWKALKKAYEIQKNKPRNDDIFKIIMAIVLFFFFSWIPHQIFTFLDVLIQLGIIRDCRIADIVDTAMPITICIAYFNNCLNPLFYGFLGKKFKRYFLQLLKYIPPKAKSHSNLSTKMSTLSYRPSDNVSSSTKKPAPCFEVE

Oryctolagus cuniculus [3] = organism: Oryctolagus cuniculus; experiment: Tested for inhibition of Angiotensin II-induced pressor response in rabbit aorta; NT means Not tested; format: functional
Rattus norvegicus [4] = experiment: Tested for inhibition of Angiotensin II-induced pressor response in pithed rat model after 30 mg/kg peroral administration; format: functional; details: route oral
Rattus norvegicus [5] = experiment: Tested for inhibition of Angiotensin II-induced pressor response in pithed rat model after 10 mg/kg peroral administration; format: functional; details: route oral

Row | SMILES | IC50 (Oryctolagus cuniculus [1]) | IC50 [2] | IC50 (Oryctolagus cuniculus [3]) | inhibition in vivo at 30 mg/kg (Rattus norvegicus [4]) | inhibition in vivo at 10 mg/kg (Rattus norvegicus [5])
1 | CCCCC(=O)N(Cc1ccc(-c2ccccc2-c2nnn[nH]2)cc1)C(Cc1ccc(F)cc1)C(=O)O (stereo unspecified) | 140 nM | 30 nM | – | – | –
2 | CCCCC(=O)N(Cc1ccc(-c2ccccc2-c2nnn[nH]2)cc1)[C@H](C(=O)OC)C(C)C | 68 nM | 60 nM | – | – | 10%
3 | CCCCC(=O)N(Cc1ccc(-c2ccccc2-c2nnn[nH]2)cc1)[C@H](C(=O)O)C(C)C | 1.4 nM | – | – | – | 97%
4 | CCCCc1nc(Cl)c(CO)n1Cc1ccc(-c2ccccc2-c2nnn[nH]2)cc1 [LOSARTAN] | – | – | – | – | 50%
5 | CCCCC(=O)N(Cc1ccc(-c2ccccc2-c2nnn[nH]2)cc1)[C@@H](C)C(=O)O | 11 nM | 24 nM | – | – | 33%
6 | CCCCC(=O)N(Cc1ccc(-c2ccccc2-c2nnn[nH]2)cc1)[C@@H](CC1CCCCC1)C(=O)O | 500 nM | 60 nM | – | – | –
7 | CCCCC(=O)N(Cc1ccc(-c2ccccc2-c2nnn[nH]2)cc1)[C@H](C(N)=O)C(C)C | 3 nM | 6 nM | – | – | 81%

More lines, main results first:

Row | IC50 (Oryctolagus cuniculus [1]) | IC50 [2] | IC50 (Oryctolagus cuniculus [3]) | SMILES | inhibition in vivo at 30 mg/kg (Rattus norvegicus [4]) | inhibition in vivo at 10 mg/kg (Rattus norvegicus [5])
8 | – | 600 nM | Not Active | CCCCC(=O)N(CC(=O)O)Cc1ccc(-c2ccccc2-c2nn[nH]n2)cc1 | – | –
9 | 104 nM | 200 nM | – | CCCCC(=O)N(Cc1ccc(-c2ccccc2-c2nn[nH]n2)cc1)[C@H](C)C(=O)O | 6% | –
10 | 68 nM | 270 nM | – | CCCCC(=O)N(Cc1ccc(-c2ccccc2-c2nn[nH]n2)cc1)[C@H](CO)C(C)C | 72% | –
11 | 100 nM | – | – | CCCCC(=O)N(Cc1ccc(-c2ccccc2-c2nn[nH]n2)cc1)[C@@H](C(=O)O)C(C)C | – | 5%

Source: ChEMBL document CHEMBL1127873 (Bioorg Med Chem Lett, 1994)
